Where two headings read alike, the source gives them in different places.

Holding throughout (type): biochemical
Experiment [1] concerns the target p110α/p85α (Homo sapiens (Human), UniProt P42336). Nature of the experiment: PI3K α inhibition assay (TLC lipid kinase or HTRF). The method, then:
(§1) Class I PI3-Ks can be either purchased (p110α/p85α, p110β/p85α, p110δ/p85α from Upstate, and p110γ from Sigma) or expressed as previously described (Knight et al., 2004). IC50 values are measured using either a standard TLC assay for lipid kinase activity (described below) or a high-throughput membrane capture assay. Kinase reactions are performed by preparing a reaction mixture containing kinase, inhibitor (2% DMSO final concentration), buffer (25 mM HEPES, pH 7.4, 10 mM MgCl2), and freshly sonicated phosphatidylinositol (100 μg/ml). Reactions are initiated by the addition of ATP containing 10 μCi of γ-32P-ATP to a final concentration 10 or 100 μM and allowed to proceed for 5 minutes at room temperature. For TLC analysis, reactions are then terminated by the addition of […] 1N HCl followed by 160 μl CHCl3:MeOH (1:1). The biphasic mixture is vortexed, briefly centrifuged, and the organic phase is transferred to a new tube using a gel loading pipette tip precoated with CHCl3. This extract is spotted on TLC plates and developed for 3-4 hours in a 65:35 solution of n-propanol:1M acetic acid. The TLC plates are then dried, exposed to a phosphorimager screen (Storm, Amersham), and quantitated. For each compound, kinase activity is measured at 10-12 inhibitor concentrations representing two-fold dilutions from the highest concentration tested (typically, 200 μM).
(§2) Other commercial kits or systems for assaying PI3-K activities are available. The commercially available kits or systems can be used to screen for inhibitors and/or agonists of PI3-Ks including but not limited to PI 3-Kinase α, β, δ, and γ. Anr exemplary system is PI3-Kinase (human) HTRF™ Assay from Upstate. […] Briefly, the assay is a time resolved FRET assay that indirectly measures PIP3 product formed by the activity of a PI3-K. The kinase reaction is performed in a microtitre plate (e.g., a 384 well microtitre plate). The total reaction volume is approximately 20 ul per well. In the first step, each well receives 2 ul of test compound in 20% dimethylsulphoxide resulting in a 2% DMSO final concentration. Next, approximately 14.5 ul of a kinase/PIP2 mixture (diluted in 1× reaction buffer) is added per well for a final concentration of 0.25-0.3 ug/ml kinase and 10 uM PIP2. The plate is sealed and incubated for 15 minutes at room temperature. To start the reaction, 3.5 ul of ATP (diluted in 1× reaction buffer) is added per well for a final concentration of 10 uM ATP. The plate is sealed and incubated for 1 hour at room temperature. The reaction is stopped by adding 5 ul of Stop Solution per well and then 5 ul of Detection Mix is added per well. The plate is sealed, incubated for 1 hour at room temperature, and then read on an appropriate plate reader. Data is analyzed and IC50s are generated using GraphPad Prism 5.
(In general: Time-resolved FRET reads energy transfer from a long-lived donor to a nearby acceptor.)

Experiment [2] concerns the target p110δ/p85α (Homo sapiens (Human), UniProt O00329). Nature of the experiment: PI3K δ inhibition assay (TLC lipid kinase or HTRF). Here is the method: as §1, §2
Experiment [3] deals with p110β/p85α (Homo sapiens, UniProt P42338). Put plainly: PI3K β inhibition assay (TLC lipid kinase or HTRF). Here is the method: as §1, §2
The target of experiment [4] is p110γ (Homo sapiens (Human), UniProt P48736). Put plainly: PI3K γ inhibition assay (TLC lipid kinase or HTRF). The method, then: as §1, §2
Chain of p110γ (P48736 whole entry): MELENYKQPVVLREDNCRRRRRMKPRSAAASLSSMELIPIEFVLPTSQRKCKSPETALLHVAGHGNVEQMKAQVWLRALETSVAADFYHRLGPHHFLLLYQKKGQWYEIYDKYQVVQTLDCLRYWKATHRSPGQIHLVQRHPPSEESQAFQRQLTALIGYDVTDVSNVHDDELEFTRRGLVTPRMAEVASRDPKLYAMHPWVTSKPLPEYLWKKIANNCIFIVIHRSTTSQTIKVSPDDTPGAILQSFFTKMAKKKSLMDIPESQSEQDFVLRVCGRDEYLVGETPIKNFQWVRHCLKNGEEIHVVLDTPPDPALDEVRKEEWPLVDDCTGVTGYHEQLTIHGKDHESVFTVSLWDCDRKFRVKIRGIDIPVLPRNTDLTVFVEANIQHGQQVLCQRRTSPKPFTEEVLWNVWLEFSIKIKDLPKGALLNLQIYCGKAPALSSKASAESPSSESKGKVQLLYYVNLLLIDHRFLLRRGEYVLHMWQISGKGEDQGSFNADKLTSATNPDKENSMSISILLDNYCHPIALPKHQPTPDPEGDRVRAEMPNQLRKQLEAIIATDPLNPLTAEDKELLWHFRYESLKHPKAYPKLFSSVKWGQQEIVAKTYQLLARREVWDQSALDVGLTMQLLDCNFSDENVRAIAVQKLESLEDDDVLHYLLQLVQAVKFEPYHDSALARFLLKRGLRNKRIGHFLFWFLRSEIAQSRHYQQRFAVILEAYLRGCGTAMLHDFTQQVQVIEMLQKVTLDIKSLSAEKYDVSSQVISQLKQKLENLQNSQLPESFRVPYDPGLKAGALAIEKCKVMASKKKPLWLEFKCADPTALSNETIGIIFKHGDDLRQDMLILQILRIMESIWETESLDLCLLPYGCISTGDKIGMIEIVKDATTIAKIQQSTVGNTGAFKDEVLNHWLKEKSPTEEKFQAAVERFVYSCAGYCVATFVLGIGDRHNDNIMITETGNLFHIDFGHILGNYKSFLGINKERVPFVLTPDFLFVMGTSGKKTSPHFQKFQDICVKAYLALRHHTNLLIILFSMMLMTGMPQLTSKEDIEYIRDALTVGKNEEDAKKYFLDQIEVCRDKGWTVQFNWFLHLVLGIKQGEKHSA

Chain of p110α/p85α (P42336 whole entry): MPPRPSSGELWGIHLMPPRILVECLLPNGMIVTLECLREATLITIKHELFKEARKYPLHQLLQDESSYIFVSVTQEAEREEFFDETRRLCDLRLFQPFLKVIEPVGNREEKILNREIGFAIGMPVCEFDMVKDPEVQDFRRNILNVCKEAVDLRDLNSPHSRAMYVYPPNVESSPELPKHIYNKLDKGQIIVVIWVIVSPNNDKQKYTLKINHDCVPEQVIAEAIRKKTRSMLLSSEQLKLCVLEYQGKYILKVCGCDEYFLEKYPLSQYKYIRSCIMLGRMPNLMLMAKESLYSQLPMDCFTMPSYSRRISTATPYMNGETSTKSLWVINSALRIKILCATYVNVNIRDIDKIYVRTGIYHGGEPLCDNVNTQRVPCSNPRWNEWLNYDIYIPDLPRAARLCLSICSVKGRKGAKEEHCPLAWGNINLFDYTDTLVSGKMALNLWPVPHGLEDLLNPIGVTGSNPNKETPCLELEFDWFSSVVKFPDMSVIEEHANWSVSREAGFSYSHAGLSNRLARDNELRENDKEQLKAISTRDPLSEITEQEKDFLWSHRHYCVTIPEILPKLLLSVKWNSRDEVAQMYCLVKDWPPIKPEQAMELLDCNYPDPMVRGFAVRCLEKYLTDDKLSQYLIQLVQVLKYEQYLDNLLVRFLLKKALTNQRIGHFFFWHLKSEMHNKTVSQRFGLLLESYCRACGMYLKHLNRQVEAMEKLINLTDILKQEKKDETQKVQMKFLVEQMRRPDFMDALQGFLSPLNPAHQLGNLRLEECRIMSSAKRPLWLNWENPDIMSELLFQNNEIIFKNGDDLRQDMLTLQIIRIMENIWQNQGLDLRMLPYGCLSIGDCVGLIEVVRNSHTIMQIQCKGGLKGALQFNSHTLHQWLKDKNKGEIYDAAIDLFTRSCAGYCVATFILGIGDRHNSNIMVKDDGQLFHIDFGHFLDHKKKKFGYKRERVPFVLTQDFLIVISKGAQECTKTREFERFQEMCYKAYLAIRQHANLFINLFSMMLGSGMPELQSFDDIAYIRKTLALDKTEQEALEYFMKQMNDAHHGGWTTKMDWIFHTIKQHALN
Chain of p110α/p85α (P27986 whole entry partner): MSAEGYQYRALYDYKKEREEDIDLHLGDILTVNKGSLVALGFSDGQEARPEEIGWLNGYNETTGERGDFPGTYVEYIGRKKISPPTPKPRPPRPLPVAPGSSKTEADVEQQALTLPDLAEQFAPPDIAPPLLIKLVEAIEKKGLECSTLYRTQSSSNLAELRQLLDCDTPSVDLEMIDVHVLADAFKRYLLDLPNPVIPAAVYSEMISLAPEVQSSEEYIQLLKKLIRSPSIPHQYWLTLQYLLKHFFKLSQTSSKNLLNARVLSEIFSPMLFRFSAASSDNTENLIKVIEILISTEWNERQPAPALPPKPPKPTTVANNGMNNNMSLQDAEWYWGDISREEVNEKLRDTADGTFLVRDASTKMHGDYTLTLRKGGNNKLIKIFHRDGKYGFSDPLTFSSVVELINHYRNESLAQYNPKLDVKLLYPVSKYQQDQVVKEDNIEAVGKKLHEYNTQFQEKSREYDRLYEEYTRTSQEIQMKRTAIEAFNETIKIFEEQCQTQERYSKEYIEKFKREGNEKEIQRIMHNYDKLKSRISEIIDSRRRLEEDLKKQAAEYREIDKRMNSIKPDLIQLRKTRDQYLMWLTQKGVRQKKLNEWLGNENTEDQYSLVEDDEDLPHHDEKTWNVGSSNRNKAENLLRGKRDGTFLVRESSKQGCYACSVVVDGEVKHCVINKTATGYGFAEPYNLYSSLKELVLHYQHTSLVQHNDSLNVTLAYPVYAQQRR
Chain of p110β/p85α (P42338 whole entry, looked up): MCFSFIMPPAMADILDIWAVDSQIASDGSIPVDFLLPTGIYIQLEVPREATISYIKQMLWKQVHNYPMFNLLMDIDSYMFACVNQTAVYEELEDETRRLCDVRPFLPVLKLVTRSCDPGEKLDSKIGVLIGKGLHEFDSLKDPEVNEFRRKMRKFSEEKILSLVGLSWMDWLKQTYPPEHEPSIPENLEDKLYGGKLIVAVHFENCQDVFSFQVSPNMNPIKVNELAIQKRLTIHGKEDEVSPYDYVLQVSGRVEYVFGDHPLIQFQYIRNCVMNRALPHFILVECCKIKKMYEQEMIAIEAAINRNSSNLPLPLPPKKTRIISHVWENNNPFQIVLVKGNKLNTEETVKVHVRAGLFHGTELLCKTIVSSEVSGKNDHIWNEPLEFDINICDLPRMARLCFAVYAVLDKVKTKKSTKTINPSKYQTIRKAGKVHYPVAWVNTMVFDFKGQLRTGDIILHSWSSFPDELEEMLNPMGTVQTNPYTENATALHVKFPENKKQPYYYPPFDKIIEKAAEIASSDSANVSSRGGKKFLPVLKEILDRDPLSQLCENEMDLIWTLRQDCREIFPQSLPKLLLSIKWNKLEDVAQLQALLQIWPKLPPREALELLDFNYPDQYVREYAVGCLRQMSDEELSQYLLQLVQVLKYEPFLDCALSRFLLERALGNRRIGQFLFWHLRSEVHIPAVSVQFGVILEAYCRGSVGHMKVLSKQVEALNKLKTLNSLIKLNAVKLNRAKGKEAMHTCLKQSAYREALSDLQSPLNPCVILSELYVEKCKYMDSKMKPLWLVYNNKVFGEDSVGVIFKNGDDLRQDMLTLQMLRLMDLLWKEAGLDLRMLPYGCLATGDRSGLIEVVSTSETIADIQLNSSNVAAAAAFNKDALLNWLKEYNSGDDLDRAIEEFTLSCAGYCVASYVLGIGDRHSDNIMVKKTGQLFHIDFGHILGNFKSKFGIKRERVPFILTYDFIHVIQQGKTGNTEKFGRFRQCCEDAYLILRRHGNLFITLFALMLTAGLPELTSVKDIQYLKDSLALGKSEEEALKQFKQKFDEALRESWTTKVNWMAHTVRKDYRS
Chain of p110δ/p85α (O00329 whole entry): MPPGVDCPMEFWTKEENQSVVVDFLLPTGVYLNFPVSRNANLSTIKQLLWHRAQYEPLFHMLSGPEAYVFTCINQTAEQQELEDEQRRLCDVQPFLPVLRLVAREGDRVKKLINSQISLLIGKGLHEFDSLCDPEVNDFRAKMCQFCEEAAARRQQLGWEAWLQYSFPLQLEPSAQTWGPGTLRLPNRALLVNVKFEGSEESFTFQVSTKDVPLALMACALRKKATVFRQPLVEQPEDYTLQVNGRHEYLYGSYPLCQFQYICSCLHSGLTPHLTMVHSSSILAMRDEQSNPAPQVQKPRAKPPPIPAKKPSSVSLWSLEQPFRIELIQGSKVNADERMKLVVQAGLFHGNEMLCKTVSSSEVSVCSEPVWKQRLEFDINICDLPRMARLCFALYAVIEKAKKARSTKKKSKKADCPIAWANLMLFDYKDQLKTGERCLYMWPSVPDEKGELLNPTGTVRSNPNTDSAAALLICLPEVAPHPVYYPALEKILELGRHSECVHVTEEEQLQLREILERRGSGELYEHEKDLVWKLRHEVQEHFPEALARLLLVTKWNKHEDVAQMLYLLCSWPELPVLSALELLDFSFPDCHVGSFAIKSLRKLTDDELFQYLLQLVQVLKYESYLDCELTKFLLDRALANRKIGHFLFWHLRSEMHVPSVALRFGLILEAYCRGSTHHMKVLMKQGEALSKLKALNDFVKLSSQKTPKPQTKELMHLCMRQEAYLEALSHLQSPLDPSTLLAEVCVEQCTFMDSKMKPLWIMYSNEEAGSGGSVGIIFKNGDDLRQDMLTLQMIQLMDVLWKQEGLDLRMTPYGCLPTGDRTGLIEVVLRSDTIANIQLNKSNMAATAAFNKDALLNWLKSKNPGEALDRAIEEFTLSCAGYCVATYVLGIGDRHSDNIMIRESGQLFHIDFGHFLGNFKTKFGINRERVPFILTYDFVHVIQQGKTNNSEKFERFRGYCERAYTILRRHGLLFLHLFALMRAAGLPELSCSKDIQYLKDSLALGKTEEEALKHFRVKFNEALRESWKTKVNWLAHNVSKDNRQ
Chain of p110δ/p85α (P27986 whole entry partner): as the sequence (P27986 whole entry partner) above

For `Nc1ncnc2c1c(-c1cc(O)cc(F)c1)nn2Cc1cc2ccccc2[nH]c1=O` [Compound 114], the IC50 in experiment [1] is over 1000 nM; in experiment [2] it was under 100 nM; in experiment [3] (read-out: PI3K β IC50), over 1000 nM; in experiment [4] it was over 1000 nM.

On to `Nc1ncnc2c1c(-c1cccc(O)c1)nn2Cc1cc2ccccc2nc1-c1ccccc1F` [Compound 91], for which the IC50 in experiment [1] is over 1000 nM; in experiment [2], 100 to 1000 nM; in experiment [3] (read-out: PI3K β IC50) it was over 1000 nM; in experiment [4], 100 to 1000 nM.

As for `CCn1c(=O)c(Cn2nc(-c3cccc(O)c3)c3c(N)ncnc32)nc2ccccc21` [Compound 116], the IC50 was over 1000 nM in experiment [1], 100 to 1000 nM in experiment [2], over 1000 nM in experiment [3] (read-out: PI3K β IC50) and over 1000 nM in experiment [4].

Regarding `CCc1nc2ccccc2cc1Cn1nc(-c2ccc3nc(NC(C)=O)sc3c2)c2c(N)ncnc21` [Compound 98], the IC50 is over 1000 nM in experiment [1], under 100 nM in experiment [2], over 1000 nM in experiment [3] (read-out: PI3K β IC50) and under 100 nM in experiment [4].

Regarding `C=Cc1nn(Cc2cc3ccccc3nc2-c2ccccc2F)c2ncnc(N)c12` [Compound 190], the IC50 in experiment [1], in experiment [2], in experiment [3] (read-out: PI3K β IC50) and in experiment [4] was over 1000 nM each time.

Take `CCC(Nc1ncnc2[nH]cnc12)c1cc2ccccc2nc1N1CCN(C)CC1` (centres unmarked) [Compound 95]: the IC50 in experiment [1] is over 1000 nM; in experiment [2], under 100 nM; in experiment [3] (read-out: PI3K β IC50) it was over 1000 nM; in experiment [4], over 1000 nM.

On to `CCn1c(=O)c(Cn2nc(-c3ccc4nc(NC(C)=O)sc4c3)c3c(N)ncnc32)nc2ccccc21` [Compound 118], for which the IC50 was over 1000 nM in experiment [1], under 100 nM in experiment [2], over 1000 nM in experiment [3] (read-out: PI3K β IC50) and 100 to 1000 nM in experiment [4].

For `CCn1c(=O)c(Cn2nc(-c3cc(O)cc(F)c3)c3c(N)ncnc32)nc2ccccc21` [Compound 117], the IC50 is over 1000 nM in experiment [1], under 100 nM in experiment [2], over 1000 nM in experiment [3] (read-out: PI3K β IC50) and over 1000 nM in experiment [4].

For the compound `Cc1ccccc1-c1nc2ccccc2nc1Cn1nc(-c2cccc(O)c2)c2c(N)ncnc21` [Compound 108], the IC50 was over 1000 nM in experiment [1], 100 to 1000 nM in experiment [2], over 1000 nM in experiment [3] (read-out: PI3K β IC50) and over 1000 nM in experiment [4].

As for `NC(=O)c1nn(Cc2cc3ccccc3nc2-c2ccccc2F)c2ncnc(N)c12` [Compound 191], the IC50 is over 1000 nM in experiment [1], 100 to 1000 nM in experiment [2], over 1000 nM in experiment [3] (PI3K β IC50) and over 1000 nM in experiment [4].

Turning to `CC(Nc1ncnc2[nH]cnc12)c1cc2ccccc2nc1N1CCCC1` (centres unmarked) [Compound 88], the IC50 in experiment [1] was over 1000 nM; in experiment [2], 100 to 1000 nM; in experiment [3] (read-out: PI3K β IC50) it was over 1000 nM; in experiment [4] it was over 1000 nM.

On to `Nc1ncnc2c1c(-c1cccc(O)c1)nn2Cc1cc2ccccc2[nH]c1=O` [Compound 109], for which the IC50 in experiment [1] was over 1000 nM; in experiment [2] it was 100 to 1000 nM; in experiment [3] (read-out: PI3K β IC50), over 1000 nM; in experiment [4], over 1000 nM.

In the case of `CC(Nc1ncnc2[nH]cnc12)c1cc2ccccc2nc1-c1ccccc1` (centres unmarked) [Compound 93], the IC50 was over 1000 nM in experiment [1], under 100 nM in experiment [2], over 1000 nM in experiment [3] (read-out: PI3K β IC50) and 100 to 1000 nM in experiment [4].

Consider `CCc1nc2ccccc2cc1Cn1nc(-c2ccc3nc(N)sc3c2)c2c(N)ncnc21` [Compound 99], for which the IC50 is 100 to 1000 nM in experiment [1], under 100 nM in experiment [2], 100 to 1000 nM in experiment [3] (read-out: PI3K β IC50) and under 100 nM in experiment [4].

With `Cn1c(=O)c(Cn2nc(-c3cccc(O)c3)c3c(N)ncnc32)cc2ccccc21` [Compound 111], the half-maximal inhibitory concentration (IC50) in experiment [1] is over 1000 nM; in experiment [2], 100 to 1000 nM; in experiment [3] (read-out: PI3K β IC50) it was over 1000 nM; in experiment [4] it was over 1000 nM.

On to `CCc1nc2ccccc2cc1Cn1nc(-c2cc(O)cc(F)c2)c2c(N)ncnc21` [Compound 97], for which the IC50 in experiment [1] is over 1000 nM; in experiment [2] it was under 100 nM; in experiment [3] (read-out: PI3K β IC50) it was 100 to 1000 nM; in experiment [4], 100 to 1000 nM.

As for `CC(C)n1c(=O)c(Cn2nc(-c3cccc(O)c3)c3c(N)ncnc32)cc2ccccc21` [Compound 110], the IC50 in experiment [1] is over 1000 nM; in experiment [2] it was 100 to 1000 nM; in experiment [3] (read-out: PI3K β IC50), over 1000 nM; in experiment [4] it was over 1000 nM.

Consider `Cn1c(=O)c(Cn2nc(-c3cc(O)cc(F)c3)c3c(N)ncnc32)cc2ccccc21` [Compound 112], for which the IC50 is over 1000 nM in experiment [1], under 100 nM in experiment [2], over 1000 nM in experiment [3] (read-out: PI3K β IC50) and 100 to 1000 nM in experiment [4].

With `Nc1ncnc2c1c(-c1cc(O)cc(F)c1)nn2Cc1cc2ccccc2nc1NC1CC1` [Compound 29], the IC50 in experiment [1] is over 1000 nM; in experiment [2], 100 to 1000 nM; in experiment [3] (read-out: PI3K β IC50), over 1000 nM; in experiment [4], over 1000 nM.

With `CCn1c(=O)c(Cn2nc(-c3cc(O)cc(F)c3)c3c(N)ncnc32)cc2ccccc21` [Compound 113], the concentration for half-maximal inhibition (IC50) in experiment [1] was over 1000 nM; in experiment [2], under 100 nM; in experiment [3] (read-out: PI3K β IC50), over 1000 nM; in experiment [4] it was over 1000 nM.

Consider `CCn1c(=O)c(Cn2nc(-c3ccc4nc(N)sc4c3)c3c(N)ncnc32)nc2ccccc21` [Compound 119], for which the IC50 was 100 to 1000 nM in experiment [1], under 100 nM in experiment [2], over 1000 nM in experiment [3] (read-out: PI3K β IC50) and under 100 nM in experiment [4].

On to `CCC(c1cc2ccccc2nc1N1CCN(C)CC1)n1cnc2c(N)ncnc21` (centres unmarked) [Compound 90], for which the half-inhibitory concentration (IC50) in experiment [1] is over 1000 nM; in experiment [2], 100 to 1000 nM; in experiment [3] (read-out: PI3K β IC50), over 1000 nM; in experiment [4] it was over 1000 nM.

As for `Cc1cccc2cc(Cn3nc(-c4cccc(O)c4)c4c(N)ncnc43)c(N3CCOCC3)nc12` [Compound 66], the IC50 is over 1000 nM in experiment [1], under 100 nM in experiment [2], 100 to 1000 nM in experiment [3] (read-out: PI3K β IC50) and under 100 nM in experiment [4].

In the case of `NC(=O)/C=C/c1nn(Cc2cc3ccccc3nc2-c2ccccc2F)c2ncnc(N)c12` [Compound 194], the IC50 is over 1000 nM in experiment [1], 100 to 1000 nM in experiment [2], over 1000 nM in experiment [3] (read-out: PI3K β IC50) and over 1000 nM in experiment [4].

For `CN1CCN(c2nc3ccccc3cc2Cn2cnc3c(N)ncnc32)CC1` [Compound 67], the half-inhibitory concentration (IC50) in experiment [1], in experiment [2], in experiment [3] (PI3K β IC50) and in experiment [4] was over 1000 nM each time.

With `Nc1ncnc2c1c(/C=C1/CCNC1=O)nn2Cc1cc2ccccc2nc1-c1ccccc1F` [Compound 193], the IC50 in experiment [1], in experiment [2], in experiment [3] (read-out: PI3K β IC50) and in experiment [4] was over 1000 nM in each case.

For the compound `CN1CCN(c2nc3ccccc3cc2CNc2ncnc3[nH]cnc23)CC1` [Compound 87], the IC50 in experiment [1], in experiment [2], in experiment [3] (read-out: PI3K β IC50) and in experiment [4] was over 1000 nM each time.

On to `CCn1c(=O)c(Cn2nc(-c3cccc(O)c3)c3c(N)ncnc32)cc2ccccc21` [Compound 115], for which the half-maximal inhibitory concentration (IC50) is over 1000 nM in experiment [1], 100 to 1000 nM in experiment [2], over 1000 nM in experiment [3] (read-out: PI3K β IC50) and over 1000 nM in experiment [4].

Turning to `CC(c1cc2ccccc2nc1N1CCN(C)CC1)n1cnc2c(N)ncnc21` (centres unmarked) [Compound 89], the IC50 is over 1000 nM in experiment [1], 100 to 1000 nM in experiment [2], over 1000 nM in experiment [3] (read-out: PI3K β IC50) and over 1000 nM in experiment [4].

What is called IC50 is the concentration that gives 50% inhibition.

The values above are taken from patent US9790228B2, “Heterocyclic kinase inhibitors” (Intellikine LLC, priority 2008, dated 2017).
